# Data as given in patent publication US10143681B2, “Factor XIa inhibitors” (MERCK SHARP & DOHME CORP., priority 2016, dated 2018).
# Tests used:
# [1] = tested on: Human plasma (intrinsic coagulation cascade); test: Activated Partial Thromboplastin Time (aPTT) Assay; settings: concentration that causes a 50% (1.5×) increase of clot time over vehicle
# Description: Activated partial thromboplastin time (aPTT) is a clotting test that measures the intrinsic coagulation cascade. The test is performed in sodium citrated plasma. Human plasma is made by collecting blood from healthy donors of both genders into Na citrate tubes (Sarstedt coagulation 9NC/10 ml). Blood is centrifuged at 1500×g and the plasma is collected. aPTT is checked on each individual donor and those within the normal range (28-40 seconds) are pooled, aliquoted, and stored at −80 C. Test samples are prepared by spiking inhibitors or vehicle into plasma. These spiked samples are then run on a coagulation analyzer (STA-R Evolution, Stago Diagnostica). In general, the analyzer performs the following steps: Factor XII is activated by addition of ellagic acid (Pacific Hemostasis), and then time to clot is measured after re-calcification of the sample. Inhibition of FXI will cause aPTT clot time to be prolonged. The data is expressed as percent increase over vehicle control clot time and the concentration that causes a 50% (1.5×) percent increase of clot time are reported.
# human Factor XIa = human Factor XIa (Homo sapiens (Human), UniProt P03951); test: Factor XIa Assay; format: biochemical; settings: for IC50: human Factor XIa 0.04 nM, 30 min pre-incubation at 25° C., substrate GPR-AFC, read-out: FXIa IC50; for inhibition at 1 µM: @ 1000 nM compound, read-out: FXIa % Inh. @ 1000 nM
# Chain of human Factor XIa (P03951 388-625): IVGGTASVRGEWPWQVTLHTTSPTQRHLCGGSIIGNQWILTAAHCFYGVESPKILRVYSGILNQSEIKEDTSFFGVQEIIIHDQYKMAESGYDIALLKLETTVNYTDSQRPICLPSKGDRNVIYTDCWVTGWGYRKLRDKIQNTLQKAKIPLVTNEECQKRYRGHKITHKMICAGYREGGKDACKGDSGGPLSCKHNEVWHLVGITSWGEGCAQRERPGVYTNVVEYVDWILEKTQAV
# Chain of human Factor XIa (P03951 19-387 partner): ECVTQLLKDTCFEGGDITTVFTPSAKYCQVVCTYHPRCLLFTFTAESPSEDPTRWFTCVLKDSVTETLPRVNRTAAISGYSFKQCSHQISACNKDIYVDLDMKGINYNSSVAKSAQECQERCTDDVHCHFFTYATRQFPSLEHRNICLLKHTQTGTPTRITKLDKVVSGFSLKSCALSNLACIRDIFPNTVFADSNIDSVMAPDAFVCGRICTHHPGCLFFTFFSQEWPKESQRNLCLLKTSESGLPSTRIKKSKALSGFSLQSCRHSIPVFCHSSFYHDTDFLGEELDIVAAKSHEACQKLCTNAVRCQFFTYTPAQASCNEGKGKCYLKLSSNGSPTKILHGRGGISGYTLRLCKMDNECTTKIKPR
# Description: The effectiveness of a compound of the present invention as an inhibitor of Coagulation Factor XIa can be determined using a relevant purified serine protease, and an appropriate synthetic substrate. The rate of hydrolysis of the chromogenic or fluorogenic substrate by the relevant serine protease was measured both in the absence and presence of compounds of the present invention. Assays were conducted at room temperature or at 37° C. […] A decrease in the rate of fluorescence change in the presence of inhibitor is indicative of enzyme inhibition. Such methods are known to one skilled in the art. The results of this assay are expressed as the half-maximal inhibitory concentrations (IC50), or the inhibitory constant, Ki.
# Compounds were pre-incubated for 30 minutes at 25° C. with human (0.04 nM) Factor XIa in 50 mM HEPES buffer with 150 mM sodium chloride, 5 mM calcium chloride, 0.1% PEG 8000, pH 7.4. Factor XIa enzymatic activity was determined by addition of the substrate glycine-proline-arginine-7-amido-4-trifluoromethylcoumarin (GPR-AFC) and measurement of the fluorescence at 400/505 nm after a 60 minute incubation at 25° C. The % inhibition for each data point was calculated from the data and analyzed using the log (inhibitor) vs. response four parameters equation to determine the half-maximal inhibitory concentrations (IC50). The IC50 were converted to equilibrium inhibitory constants (Ki) using the Cheng-Prusoff equation.
Compound,aPTT (1.5x) [1] [µM],IC50 (human Factor XIa) [nM],inhibition at 1 µM (human Factor XIa) [%]
"O=C(O)c1ccc(NC(=O)[C@@H](CC2CCC2)c2ccc(-c3c(C(F)F)ccc(Cl)c3F)c[n+]2[O-])cc1 (mixture of isomers) [Example 4, (S)- and (R)-2-(1-((4-Carboxyphenyl)amino)-3-cyclobutyl-1-oxopropan-2-yl)-5-(3-chloro-6-(difluoromethyl)-2-fluorophenyl)pyridine 1-oxide]",0.55,,
"O=C(O)c1ccc(NC(=O)C(CC2CC2F)c2ccc(-c3c(C(F)F)ccc(Cl)c3F)c[n+]2[O-])cc1 (single isomer, unassigned) [Example 92, 2-(1-((4-carboxyphenyl)amino)-3-(2-fluorocyclopropyl)-1-oxopropan-2-yl)-5-(3-chloro-6-(difluoromethyl)-2-fluorophenyl)pyridine 1-oxide]",100,,
"COc1cc(C(CC2CC2)C(=O)Nc2ccc(C(=O)O)cc2)[n+]([O-])cc1-c1c(C(F)F)ccc(Cl)c1F [Example 69, (S)- and (R)-2-(1-((4-carboxyphenyl)amino)-3-cyclopropyl-1-oxopropan-2-yl)-5-(3-chloro-6-(difluoromethyl)-2-fluorophenyl)-4-methoxypyridine 1-oxide]",1.92,,
"Cc1cc(C(CC2CC2)C(=O)Nc2ccc(C(=O)O)cc2)[n+]([O-])cc1-c1c(OC(F)F)ccc(Cl)c1F [Example 67, (S)- and (R)-2-(1-((4-carboxyphenyl)amino)-3-cyclopropyl-1-oxopropan-2-yl)-5-(3-chloro-6-(difluoromethoxy)-2-fluorophenyl)-4-methylpyridine 1-oxide]",,11,
"CC(C1CC1)C(C(=O)Nc1ccc(C(=O)O)cc1)c1ccc(-c2c(OC(F)F)ccc(Cl)c2F)c[n+]1[O-] (single isomer, unassigned) [Example 57, 2-(1-((4-carboxyphenyl)amino)-3-cyclopropyl-1-oxobutan-2-yl)-5-(3-chloro-6-(difluoromethoxy)-2-fluorophenyl)pyridine 1-oxide]",,> 1000,48
"CC(C1CC1)C(C(=O)Nc1ccc(C(=O)O)cc1)c1ccc(-c2c(OC(F)F)ccc(Cl)c2F)c[n+]1[O-] (single isomer, unassigned) [Example 58, 2-(1-((4-carboxyphenyl)amino)-3-cyclopropyl-1-oxobutan-2-yl)-5-(3-chloro-6-(difluoromethoxy)-2-fluorophenyl)pyridine 1-oxide]",,334,
"O=C(O)c1ccc(NC(=O)C(CC2CC(F)C2)c2ccc(-c3c(OC(F)F)ccc(Cl)c3F)c[n+]2[O-])cc1 (single isomer, unassigned) [Example 101, 2-(1-((4-carboxyphenyl)amino)-3-(3-fluorocyclobutyl)-1-oxopropan-2-yl)-5-(3-chloro-6-(difluoromethoxy)-2-fluorophenyl)pyridine 1-oxide]",,,44
"O=C(O)c1ccc(NC(=O)C(CC2CCC2)c2ccc(-c3c(OC(F)F)ccc(Cl)c3F)c[n+]2[O-])cc1 (single isomer, unassigned) [Example 14, (S)- or (R)-4-[(2-{5-[3-chloro-6-(difluoromethoxy)-2-fluorophenyl]-1-oxidopyridin-2-yl}-3-cyclobutylpropanoyl)amino] benzoic acid]",,47,
"CC(C1CC1)C(C(=O)Nc1ccc(C(=O)O)cc1)c1ccc(-c2c(OC(F)F)ccc(Cl)c2F)c[n+]1[O-] (single isomer, unassigned) [Example 59, 2-(1-((4-carboxyphenyl)amino)-3-cyclopropyl-1-oxobutan-2-yl)-5-(3-chloro-6-(difluoromethoxy)-2-fluorophenyl)pyridine 1-oxide]",,286,
"CC1CCC1CC(C(=O)Nc1ccc(C(=O)O)cc1)c1ccc(-c2c(OC(F)F)ccc(Cl)c2F)c[n+]1[O-] (single isomer, unassigned) [Example 104, 2-(1-((4-carboxyphenyl)amino)-3-(2-methylcyclobutyl)-1-oxopropan-2-yl)-5-(3-chloro-6-(difluoromethoxy)-2-fluorophenyl)pyridine 1-oxide]",,1000,37
"C[C@]1(O)CC[C@H](CC(C(=O)Nc2ccc(C(=O)O)cc2)c2ccc(-c3c(C(F)F)ccc(Cl)c3F)c[n+]2[O-])CC1 (single isomer, unassigned) [Example 46, 2-(1-((4-carboxyphenyl)amino)-3-((1r,4r)-4-hydroxy-4-methylcyclohexyl)-1-oxopropan-2-yl)-5-(3-chloro-6-(difluoromethyl)-2-fluorophenyl)pyridine 1-oxide]",,128,
"C[C@]1(O)CC[C@@H](CC(C(=O)Nc2ccc(C(=O)O)cc2)c2ccc(-c3c(C(F)F)ccc(Cl)c3F)c[n+]2[O-])CC1 (single isomer, unassigned) [Example 44, 2-(1-((4-carboxyphenyl)amino)-3-((1s,4s)-4-hydroxy-4-methylcyclohexyl)-1-oxopropan-2-yl)-5-(3-chloro-6-(difluoromethyl)-2-fluorophenyl)pyridine 1-oxide]",,299,
"O=C(O)c1ccc(NC(=O)C(CC2CC(F)C2)c2ccc(-c3c(C(F)F)ccc(Cl)c3F)c[n+]2[O-])cc1 (single isomer, unassigned) [Example 80, 2-(1-((4-carboxyphenyl)amino)-3-(3-fluorocyclobutyl)-1-oxopropan-2-yl)-5-(3-chloro-6-(difluoromethyl)-2-fluorophenyl)pyridine 1-oxide]",,484,
"COc1ccc(Cl)c(F)c1-c1ccc(C(CC2CC2)C(=O)Nc2ccc(C(=O)O)cc2)[n+]([O-])c1 (single isomer, unassigned) [Example 10, (S)- or (R)-4-({2-[5-(3-chloro-2-fluoro-6-methoxyphenyl)-1-oxidopyridin-2-yl]-3-cyclopropylpropanoyl}amino) benzoic acid]",,> 1000,13
"O=C(O)c1ccc(NC(=O)C(CC2CC2C(F)(F)F)c2ccc(-c3c(OC(F)F)ccc(Cl)c3F)c[n+]2[O-])cc1 (single isomer, unassigned) [Example 110, 2-(1-((4-carboxyphenyl)amino)-1-oxo-3-(2-(trifluoromethyl)cyclopropyl)propan-2-yl)-5-(3-chloro-6-(difluoromethoxy)-2-fluorophenyl)pyridine 1-oxide]",,,29
"O=C(O)c1ccc(NC(=O)[C@@H](CC2CC2)c2ccc(-c3c(C(F)F)ccc(Cl)c3F)c[n+]2[O-])cc1 (mixture of isomers) [Example 22, (S)- and (R)-2-(1-((4-carboxyphenyl)amino)-3-cyclopropyl-1-oxopropan-2-yl)-5-(3-chloro-6-(difluoromethyl)-2-fluorophenyl)pyridine 1-oxide]",,240,
"C[C@]1(O)CC[C@@H](CC(C(=O)Nc2ccc(C(=O)O)cc2)c2ccc(-c3c(OC(F)F)ccc(Cl)c3F)c[n+]2[O-])CC1 (single isomer, unassigned) [Example 41, 2-(1-((4-carboxyphenyl)amino)-3-((1s,4s)-4-hydroxy-4-methylcyclohexyl)-1-oxopropan-2-yl)-5-(3-chloro-6-(difluoromethoxy)-2-fluorophenyl)pyridine 1-oxide]",,> 1000,49
"C[C@]1(O)CC[C@H](CC(C(=O)Nc2ccc(C(=O)O)cc2)c2ccc(-c3c(OC(F)F)ccc(Cl)c3F)c[n+]2[O-])CC1 (single isomer, unassigned) [Example 42, 2-(1-((4-carboxyphenyl)amino)-3-((1r,4r)-4-hydroxy-4-methylcyclohexyl)-1-oxopropan-2-yl)-5-(3-chloro-6-(difluoromethoxy)-2-fluorophenyl)pyridine 1-oxide]",,227,
